This note sets out measurements from article PMC6929975, “A supramolecular protein chaperone for vaccine delivery” (Theranostics, 2020).

Starred links: 1 amine or outer side, 2 acyl side, 3 side chain; linkers in the order of their positions; H or OH if unused. Non-standard residues stand in square brackets, D forms with d. Residues, ends and D or L forms follow the SMILES beside them. Groups on a side chain read outwards from the residue. *: point of attachment. γGlu = O=C(O)[C@H](CCC(=O)[*:2])N[*:1]; X1 = CC(C(=O)*)c1ccc(-c2ccccc2)c(F)c1

One data set has as its system splenocytes. The settings on record: 80 µg/mL.
Data set [1] is described as follows: Dissolution and protein-induced hydrogelation / gel stability. The data set is classed as physicochemical. The settings on record: coassembled hydrogel with OVA, room temperature (20-25 °C). As to the method: 2.5 mg of compounds were dispersed in endotoxin-free PBS buffer solution (pH = 7.4) at a final concentration of 0.5 wt% with sodium carbonate to adjust the final pH to 7.4. Proteins were dispersed in endotoxin-free PBS buffer solution (pH = 7.4) at a final concentration of 10 μg/μL. The proteins were then evenly dispersed in the hydrogel by vortexing. The mixtures were maintained at 37°C for half hour and hydrogel then formed. The final concentration of the protein in the hydrogel was 500 μg/mL.
We then tested the coassembly property of Comp. 1 with the model protein antigen ovalbumin (OVA). Comp. […] After adding OVA to the solution (final protein concentration = 0.05 wt%), we observed rapid hydrogelation within 10 minutes (Figure 1C). The resulting hydrogel was stable for more than 3 months at room temperature (20-25 °C). The maximum proportion of the nanofibers composed of OVA was 50% for Comp. 1 (Figure S5 and S6).

Data set [2] has as its system Raw 264.7 mouse macrophages. The conditions noted are these: 80 µg/mL.
The target of the next data set is T1, ovalbumin (OVA) (Gallus gallus, UniProt P01012).
T1 construct: purchased InvivoGen
T1 sequence (P01012 1-386): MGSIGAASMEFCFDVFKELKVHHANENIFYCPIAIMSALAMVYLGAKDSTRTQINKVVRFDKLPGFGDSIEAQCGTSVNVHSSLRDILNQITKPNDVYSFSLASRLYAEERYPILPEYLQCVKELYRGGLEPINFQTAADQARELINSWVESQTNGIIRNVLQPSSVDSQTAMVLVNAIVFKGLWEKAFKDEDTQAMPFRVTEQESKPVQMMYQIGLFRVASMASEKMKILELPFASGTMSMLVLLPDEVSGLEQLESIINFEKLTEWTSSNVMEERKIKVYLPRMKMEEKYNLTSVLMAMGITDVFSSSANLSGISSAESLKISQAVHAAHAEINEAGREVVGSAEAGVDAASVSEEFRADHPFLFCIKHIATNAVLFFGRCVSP
Description: Microscale thermophoresis (MST) binding to OVA. The settings on record: Monolith NT.115, NT-647-labelled protein, PBS with 0.05% Tween-20, pH 7.4, Comp. 0.25 μM to 10 mM. The text has this:
For the interaction experiments of fluorescent-proteins with Comp. […] 1 or 2 at 1:1 volume ratio.
For orientation: MST reads how a fluorescent partner responds to local heating, with and without ligand.

The nature of data set [3]: Antigen release assay (OVA release from hydrogel). The data set is classed as physicochemical. The settings on record: physically encapsulated OVA, 0.2 wt% gel, 150 μL, 30 μg OVA-RBITC, PBS pH 7.4, 37 °C, absorbance 560 nm. As to the method: The released profiles of OVA-RBITC from Vac-1 and Vac-2 in vitro were studied at 37 °C. 150 μL of Vac-1 or Vac-2 (0.2 wt%) containing 30 μg of OVA-RBITC was used for the measurement. 150 μL PBS solution (pH = 7.4) was firstly added on top of the gel, 100 μL of solution was taken out at the desired time point and 100 μL of fresh PBS solutions was added back. The absorbance of OVA-RBITC was determined at 560 nm by a microplate reader (BioTek Synergy 4) to calculate the cumulative release rate of OVA-RBITC from hydrogel vaccines.

Take `CC(C(=O)NCC(=O)N[C@H](Cc1ccccc1)C(=O)N[C@H](Cc1ccccc1)C(=O)N[C@H](Cc1ccc(O)cc1)C(=O)N[C@H](CCCCNC(=O)CC[C@H](NC(=O)CC[C@H](N)C(=O)O)C(=O)O)C(N)=O)c1ccc(-c2ccccc2)c(F)c1` (some centres unmarked) [Comp. 1, Fbp-G^DF^DF^DY^DK(γE)2-NH2] (X1-G[dF][dF][dY][dK]([γGlu-γGlu])-NH2): the “cell viability, splenocytes” value in the data set with splenocytes is given as “did not remarkably reduce the cell viability”. In data set [1], the “stability of the resulting hydrogel” value is listed as “more than 3 months”. Also, in data set [2], the “cell viability, Raw 264.7” value is “did not remarkably reduce the cell viability”.
On to Fbp-G^DF^DF^DY [Comp. 2], for which, at ovalbumin (OVA), the “binding affinity for OVA, in words” value is “no measurable binding affinity”. For the same compound, the “cumulative OVA release within 16 hours” value in data set [3] is on record as about 100%.
